EC50 data for five molecules are collected here from patent publication US10414811B2, “Protease-resistant lipidated GLP-1 analogs” (MEDIMMUNE LIMITED, priority 2015, dated 2019).

What all share (format): cell-based
For assay [1], the target named is T1, human GLP-1 receptor (GLP-1R) (Homo sapiens, UniProt P43220).
T1 construct: expressed in transfected cells
Kind of assay: cAMP assay, human GLP-1R cells. The method in brief: (§1)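 Peptide-stimulated cAMP measured by two-step HTRF after a 30 min room-temperature incubation with receptor-expressing cells (hGLP-1R, hGIPR at 1×10^5 cells/ml; hGCGR at 2×10^5 cells/ml). Duplicate dilutions; EC50 from 4-parameter logistic fit of % Delta F.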
(In general: Changes in cAMP serve as a functional read-out for many G protein-coupled receptors.)

Assay [2] addresses T2, human glucagon receptor (GCGR) (Homo sapiens, UniProt P47871).
T2 construct: expressed in transfected cells
Nature of the assay: cAMP assay, human GCGR cells. As to conditions: cAMP assay. The method in brief: as §1

Assay [3] addresses T3, human glucose-dependent insulinotropic peptide receptor (GIPR) (Homo sapiens, UniProt P48546).
T3 construct: expressed in transfected cells
T3 sequence (P48546 22-466): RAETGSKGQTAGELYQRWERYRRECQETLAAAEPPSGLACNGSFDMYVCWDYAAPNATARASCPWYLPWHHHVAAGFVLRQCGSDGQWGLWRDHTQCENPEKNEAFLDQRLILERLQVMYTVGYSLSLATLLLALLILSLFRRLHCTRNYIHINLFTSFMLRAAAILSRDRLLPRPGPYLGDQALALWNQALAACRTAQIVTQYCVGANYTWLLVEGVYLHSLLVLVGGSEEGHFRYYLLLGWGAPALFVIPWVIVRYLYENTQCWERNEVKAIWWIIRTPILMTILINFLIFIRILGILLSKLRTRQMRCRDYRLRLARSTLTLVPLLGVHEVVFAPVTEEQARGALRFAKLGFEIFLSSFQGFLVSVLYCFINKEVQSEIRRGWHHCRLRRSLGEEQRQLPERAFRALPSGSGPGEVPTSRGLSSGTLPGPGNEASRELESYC
Kind of assay: cAMP assay, human GIPR cells. The note with it: cAMP assay. The method in brief:
as §1

For another assay, the target named is T4, GLP-1R (INS1e assay) (Rattus norvegicus, UniProt P32301).
T4 construct: endogenous in cells; host or cells: INS-1E cells
T4 sequence (P32301 22-463): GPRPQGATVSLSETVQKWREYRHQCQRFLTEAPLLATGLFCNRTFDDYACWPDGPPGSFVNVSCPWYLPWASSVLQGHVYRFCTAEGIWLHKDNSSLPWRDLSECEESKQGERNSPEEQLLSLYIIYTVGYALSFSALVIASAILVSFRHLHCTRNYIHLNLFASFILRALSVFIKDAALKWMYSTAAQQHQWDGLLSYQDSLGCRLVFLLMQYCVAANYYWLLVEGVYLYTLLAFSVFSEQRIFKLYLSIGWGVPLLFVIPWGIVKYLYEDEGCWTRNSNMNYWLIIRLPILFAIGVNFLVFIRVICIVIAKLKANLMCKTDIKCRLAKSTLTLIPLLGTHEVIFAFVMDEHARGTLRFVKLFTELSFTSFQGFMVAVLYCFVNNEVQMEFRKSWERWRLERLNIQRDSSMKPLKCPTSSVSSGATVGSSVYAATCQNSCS
Kind of assay: INS1e assay, cAMP activity at GLP-1R. The note with it: mono-lipidated peptides. The method in brief: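 cAMP was quantified by two-step HTRF, using anti-cAMP cryptate donor and cAMP-d2 acceptor, each diluted 1/20 in conjugate and lysis buffer. EC50 values of the synthetic peptides were derived from the cAMP readout.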

Setting [4] is: cAMP assay, first determination (n1), read-out: Primary assay EC50 GLP-1R n1.
The mark [5] stands for this setting: cAMP assay, second determination (n2), read-out: Primary assay EC50 GLP-1R n2.
[6] abbreviates: mean of n1 and n2, read-out: Mean pM GLP-1R.
[7] abbreviates: first determination (n1), read-out: Primary assay EC50 Gluc-R (n1).
Setting [8] is: second determination (n2), read-out: Primary assay EC50 Gluc-R (n2).
[9] abbreviates: first determination (n1), read-out: Primary assay EC50 GIP-R (n1).
Setting [10] is: second determination (n2), read-out: Primary assay EC50 GIP-R (n2).
[11] abbreviates: mean of n1 and n2, read-out: INS1e assay EC50 Mean pM GLP-1R.
Setting [12] is: replicate n1, read-out: INS1e assay EC50 GLP-1R n1.
Where [13] appears, read: replicate n2, read-out: INS1e assay EC50 GLP-1R n2.

Where two headings read alike, the source gives them in different places.

T2 sequence (P47871 26-477): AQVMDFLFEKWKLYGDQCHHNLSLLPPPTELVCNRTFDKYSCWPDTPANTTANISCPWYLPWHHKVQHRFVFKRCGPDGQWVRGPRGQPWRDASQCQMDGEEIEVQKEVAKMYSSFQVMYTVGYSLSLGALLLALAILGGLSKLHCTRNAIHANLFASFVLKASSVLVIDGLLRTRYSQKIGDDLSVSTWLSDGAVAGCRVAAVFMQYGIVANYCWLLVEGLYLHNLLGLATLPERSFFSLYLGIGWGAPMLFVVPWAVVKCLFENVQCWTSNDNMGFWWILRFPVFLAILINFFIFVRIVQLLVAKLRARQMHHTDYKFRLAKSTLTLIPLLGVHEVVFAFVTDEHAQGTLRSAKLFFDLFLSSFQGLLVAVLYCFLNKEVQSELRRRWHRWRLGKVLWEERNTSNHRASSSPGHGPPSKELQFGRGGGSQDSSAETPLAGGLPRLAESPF
T1 sequence (P43220 24-463): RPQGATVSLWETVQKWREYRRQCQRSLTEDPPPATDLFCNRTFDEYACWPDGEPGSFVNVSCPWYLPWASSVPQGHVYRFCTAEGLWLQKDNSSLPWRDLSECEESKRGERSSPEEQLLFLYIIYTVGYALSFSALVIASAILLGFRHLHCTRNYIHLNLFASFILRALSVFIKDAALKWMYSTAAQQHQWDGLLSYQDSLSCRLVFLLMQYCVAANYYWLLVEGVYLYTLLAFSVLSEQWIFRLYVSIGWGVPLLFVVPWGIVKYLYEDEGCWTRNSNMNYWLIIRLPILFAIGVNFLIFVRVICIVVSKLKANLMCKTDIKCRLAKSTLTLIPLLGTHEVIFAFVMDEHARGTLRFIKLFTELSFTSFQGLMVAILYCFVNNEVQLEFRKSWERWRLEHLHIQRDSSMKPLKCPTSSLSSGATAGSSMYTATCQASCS

`CCCCCCCCCCCC(=O)NCCCCCC(=O)NCCCCCC(=O)NCCCC[C@H](NC(=O)[C@@H](NC(=O)[C@@H](NC(=O)[C@](C)(Cc1ccccc1)NC(=O)[C@H](C)NC(=O)[C@@H](NC(=O)[C@](C)(Cc1ccccc1)NC(=O)[C@H](CCC(=O)O)NC(=O)[C@](C)(CCCCN)NC(=O)[C@H](C)NC(=O)[C@H](C)NC(=O)[C@H](CCC(=O)O)NC(=O)CNC(=O)[C@H](CCC(=O)O)NC(=O)[C@H](CC(C)C)NC(=O)[C@](C)(Cc1ccccc1)NC(=O)[C@H](CO)NC(=O)[C@](C)(CO)NC(=O)[C@@H](NC(=O)[C@H](CC(=O)O)NC(=O)[C@H](CO)NC(=O)[C@@H](NC(=O)[C@](C)(Cc1ccccc1)NC(=O)[C@H](CO)NC(=O)CNC(=O)[C@H](CCC(=O)O)NC(=O)C(C)(C)NC(=O)[C@@H](N)Cc1c[nH]cn1)[C@@H](C)O)C(C)C)[C@@H](C)CC)C(C)C)C(C)C)C(=O)NCC(=O)NCC(N)=O` [compound 168]: the EC50 is 5.1 pM in assay [1] (setting [4]); 2.6 pM in assay [1] (setting [5]); 3.8 pM in assay [1] (setting [6]); no less than 28 nM in assay [2] (setting [7]); no less than 28 nM in assay [2] (setting [8]); no less than 28 nM in assay [3] (setting [9]). For the same molecule, the EC50 was no less than 28 nM in assay [3] (setting [10]), 326 pM at GLP-1R (INS1e assay) (setting [11]), 189 pM at GLP-1R (INS1e assay) (setting [12]) and 462 pM on GLP-1R (INS1e assay) (setting [13]).

For the molecule `CCCCCCCCCCCC(=O)NCCCCCC(=O)NCCCCCC(=O)NCCCCCC(=O)NCCCC[C@H](NC(=O)[C@@H](NC(=O)[C@@H](NC(=O)[C@](C)(Cc1ccccc1)NC(=O)[C@H](C)NC(=O)[C@@H](NC(=O)[C@](C)(Cc1ccccc1)NC(=O)[C@H](CCC(=O)O)NC(=O)[C@](C)(CCCCN)NC(=O)[C@H](C)NC(=O)[C@H](C)NC(=O)[C@H](CCC(=O)O)NC(=O)CNC(=O)[C@H](CCC(=O)O)NC(=O)[C@H](CC(C)C)NC(=O)[C@](C)(Cc1ccccc1)NC(=O)[C@H](CO)NC(=O)[C@](C)(CO)NC(=O)[C@@H](NC(=O)[C@H](CC(=O)O)NC(=O)[C@H](CO)NC(=O)[C@@H](NC(=O)[C@](C)(Cc1ccccc1)NC(=O)[C@H](CO)NC(=O)CNC(=O)[C@H](CCC(=O)O)NC(=O)C(C)(C)NC(=O)[C@@H](N)Cc1c[nH]cn1)[C@@H](C)O)C(C)C)[C@@H](C)CC)C(C)C)C(C)C)C(=O)NCC(=O)NCC(N)=O` [compound 169], the EC50 in assay [1] (setting [4]) is 3.4 pM; in assay [1] (setting [5]), 1.7 pM; in assay [1] (setting [6]), 2.6 pM; in assay [2] (setting [7]) it was no less than 27 nM; in assay [2] (setting [8]), no less than 27 nM; in assay [3] (setting [9]) it was no less than 27 nM. Further, the EC50 is no less than 27 nM in assay [3] (setting [10]), 181 pM on GLP-1R (INS1e assay) (setting [11]), 93.1 pM at GLP-1R (INS1e assay) (setting [12]) and 269 pM on GLP-1R (INS1e assay) (setting [13]).

Regarding `CCCCCCCCCCCC(=O)NCCOCCOCC(=O)NCCOCCOCC(=O)NCCCC[C@H](NC(=O)[C@@H](NC(=O)[C@@H](NC(=O)[C@](C)(Cc1ccccc1)NC(=O)[C@H](C)NC(=O)[C@@H](NC(=O)[C@](C)(Cc1ccccc1)NC(=O)[C@H](CCC(=O)O)NC(=O)[C@](C)(CCCCN)NC(=O)[C@H](C)NC(=O)[C@H](C)NC(=O)[C@H](CCC(=O)O)NC(=O)CNC(=O)[C@H](CCC(=O)O)NC(=O)[C@H](CC(C)C)NC(=O)[C@](C)(Cc1ccccc1)NC(=O)[C@H](CO)NC(=O)[C@](C)(CO)NC(=O)[C@@H](NC(=O)[C@H](CC(=O)O)NC(=O)[C@H](CO)NC(=O)[C@@H](NC(=O)[C@](C)(Cc1ccccc1)NC(=O)[C@H](CO)NC(=O)CNC(=O)[C@H](CCC(=O)O)NC(=O)C(C)(C)NC(=O)[C@@H](N)Cc1c[nH]cn1)[C@@H](C)O)C(C)C)[C@@H](C)CC)C(C)C)C(C)C)C(=O)NCC(=O)NCC(N)=O` [compound 171], the EC50 in assay [1] (setting [4]) is 2.5 pM; in assay [1] (setting [5]) it was 1.2 pM; in assay [1] (setting [6]), 1.9 pM; in assay [2] (setting [7]), no less than 27 nM; in assay [2] (setting [8]) it was no less than 27 nM; in assay [3] (setting [9]), no less than 27 nM. Moreover, the EC50 was no less than 27 nM in assay [3] (setting [10]), 128 pM on GLP-1R (INS1e assay) (setting [11]), 81.7 pM on GLP-1R (INS1e assay) (setting [12]) and 175 pM at GLP-1R (INS1e assay) (setting [13]).

On to `CCCCCCCCCCCC(=O)NCCOCCOCC(=O)NCCOCCOCC(=O)NCCOCCOCC(=O)NCCCC[C@H](NC(=O)[C@@H](NC(=O)[C@@H](NC(=O)[C@](C)(Cc1ccccc1)NC(=O)[C@H](C)NC(=O)[C@@H](NC(=O)[C@](C)(Cc1ccccc1)NC(=O)[C@H](CCC(=O)O)NC(=O)[C@](C)(CCCCN)NC(=O)[C@H](C)NC(=O)[C@H](C)NC(=O)[C@H](CCC(=O)O)NC(=O)CNC(=O)[C@H](CCC(=O)O)NC(=O)[C@H](CC(C)C)NC(=O)[C@](C)(Cc1ccccc1)NC(=O)[C@H](CO)NC(=O)[C@](C)(CO)NC(=O)[C@@H](NC(=O)[C@H](CC(=O)O)NC(=O)[C@H](CO)NC(=O)[C@@H](NC(=O)[C@](C)(Cc1ccccc1)NC(=O)[C@H](CO)NC(=O)CNC(=O)[C@H](CCC(=O)O)NC(=O)C(C)(C)NC(=O)[C@@H](N)Cc1c[nH]cn1)[C@@H](C)O)C(C)C)[C@@H](C)CC)C(C)C)C(C)C)C(=O)NCC(=O)NCC(N)=O` [compound 172], for which the EC50 is 1.5 pM in assay [1] (setting [4]); 1.1 pM in assay [1] (setting [6]); no less than 26 nM in assay [2] (setting [7]); no less than 26 nM in assay [2] (setting [8]); no less than 26 nM in assay [3] (setting [9]); no less than 26 nM in assay [3] (setting [10]). In addition, the EC50 was 33.8 pM on GLP-1R (INS1e assay) (setting [11]), 39.6 pM on GLP-1R (INS1e assay) (setting [12]) and 28 pM on GLP-1R (INS1e assay) (setting [13]).

`CCCCCCCCCCCCCCCCCC(=O)N[C@@H](CCC(=O)N[C@@H](CCC(=O)N[C@@H](CCC(=O)NCCCC[C@H](NC(=O)[C@@H](NC(=O)[C@@H](NC(=O)[C@](C)(Cc1ccccc1)NC(=O)[C@H](C)NC(=O)[C@@H](NC(=O)[C@](C)(Cc1ccccc1)NC(=O)[C@H](CCC(=O)O)NC(=O)[C@](C)(CCCCN)NC(=O)[C@H](C)NC(=O)[C@H](C)NC(=O)[C@H](CCC(=O)O)NC(=O)CNC(=O)[C@H](CCC(=O)O)NC(=O)[C@H](CC(C)C)NC(=O)[C@](C)(Cc1ccccc1)NC(=O)[C@H](CO)NC(=O)[C@](C)(CO)NC(=O)[C@@H](NC(=O)[C@H](CC(=O)O)NC(=O)[C@H](CO)NC(=O)[C@@H](NC(=O)[C@](C)(Cc1ccccc1)NC(=O)[C@H](CO)NC(=O)CNC(=O)[C@H](CCC(=O)O)NC(=O)C(C)(C)NC(=O)[C@@H](N)Cc1c[nH]cn1)[C@@H](C)O)C(C)C)[C@@H](C)CC)C(C)C)C(C)C)C(=O)NCC(=O)NCC(N)=O)C(=O)O)C(=O)O)C(=O)O` [compound 184]: the EC50 is 47 pM in assay [1] (setting [4]); 12 pM in assay [1] (setting [5]); 29.5 pM in assay [1] (setting [6]); no less than 26 nM in assay [2] (setting [7]); no less than 26 nM in assay [2] (setting [8]); no less than 26 nM in assay [3] (setting [9]). Moreover, the EC50 in assay [3] (setting [10]) is no less than 26 nM; on GLP-1R (INS1e assay) (setting [11]) it was 426 pM; at GLP-1R (INS1e assay) (setting [12]), 351 pM; on GLP-1R (INS1e assay) (setting [13]), 501 pM.
